Several values for one entry are separate records, joined by “and”; a condition that tells them apart may be missing. Equal values may be shown once.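 Following 48 hours of exposure in 96-well plates, responses at five concentrations were used to interpolate endpoints linearly. GI50 marks 50% less growth. TGI denotes the concentration required for complete inhibition of growth.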
Legend:
Test in all cases: NCI-60 cell line screen, 48 h
[1] = tested on: CCRF-CEM leukemia
[2] = tested on: IGROV1 ovarian
[3] = tested on: SF-539 CNS
[4] = tested on: HOP-18 NSCLC
[5] = tested on: OVCAR-3 ovarian
[6] = tested on: COLO 205 colon
[7] = tested on: OVCAR-8 ovarian
[8] = tested on: DLD-1 colon
[9] = tested on: DU-145 prostate
[10] = tested on: PC-3 prostate

SMILES	TGI [1]	TGI [2]	TGI [3]	TGI [4] [µM]	TGI [5]	TGI [6]	TGI [7]	TGI [8] [µM]	GI50 [9] [µM]	TGI [9]	GI50 [1] [µM]	GI50 [2]	GI50 [3]	GI50 [5]	GI50 [10] [µM]	TGI [10]	GI50 [6]	GI50 [7] [µM]	GI50 [4] [µM]	GI50 [8] [µM]
COc1cccc(NC(=O)CC(=O)N2NC(C)C(N=Nc3cccc(C(=O)O)c3)C2=O)c1 (stereo not given)	> 100 µM	> 100 µM	> 100 µM	> 100	> 100 µM	> 100 µM	> 100 µM	> 100												
N#CCC(=O)N/N=C1\C(=O)N(c2ccc(Cl)cc2)C(=O)C(=O)C1c1nc2ccccc2o1 (stereo not given)	> 100 µM	> 100 µM	> 100 µM	> 100	> 100 µM	> 100 µM	> 100 µM	> 100												
C[C@H]1CC(=O)C2=CCCC3(SCCCS3)[C@@H]2[C@H]1CO	> 100 µM	> 100 µM	> 100 µM	> 100	> 100 µM	> 100 µM	> 100 µM	> 100												
O=C1/C(=C/c2ccccc2)CCC/C1=C\c1ccccc1	36.5 µM and 51.1 µM and > 100 µM	14.1 µM and 29.4 µM and > 100 µM	12.2 µM and 32.7 µM and 53.4 µM	38.7	11.3 µM and 24 µM and 13 µM	11.5 µM and 32.7 µM and 35.2 µM	13.6 µM and 28.1 µM and 25.4 µM	8.83	16.9	13.5 µM and 34 µM	18.5	8.37 µM and 14.6 µM	6.9 µM and 22.3 µM	6.25 µM and 4.04 µM	14.3	11 µM and 42.5 µM	6.31 µM and 15.1 µM	3.57		
COc1cc2cc[n+]3c4cc(OC)c(OC)cc4c(C)cc3c2cc1OC	> 100 µM	> 100 µM	> 100 µM	> 100	> 100 µM	> 100 µM	> 100 µM	> 100												
O=c1c2cc(Br)cc(Br)c2[nH]c(=S)n1-c1ccccc1	> 100 µM	> 100 µM	> 100 µM	> 100	> 100 µM	> 100 µM	> 100 µM	> 100												
O=c1c2ccccc2c(=O)c2c1cc(Cl)c1[nH]c3c([nH]c12)c(Cl)cc1c(=O)c2ccccc2c(=O)c13	> 100 µM	> 100 µM	> 100 µM		> 100 µM	> 100 µM	> 100 µM	> 100												
C/C(=N/NC(=O)C(N)=O)C(CC(C(=O)Nc1ccccc1C)/C(C)=N\NC(=O)C(N)=O)C(=O)Nc1ccccc1C (stereo not given)	> 100 µM	> 100 µM	> 100 µM		> 100 µM	> 100 µM	> 100 µM	> 100												
O=C(O)CCC1(Br)CCCCC(Br)C1=O (stereo not given)	> 100 µM	> 100 µM	> 100 µM	> 100	> 100 µM	> 100 µM	> 100 µM													
COc1cc([C@@H]2c3cc4c(cc3[C@H](O)[C@H]3COC(=O)[C@H]23)OCO4)cc(OC)c1OC			< 0.005 µM	> 100		< 0.005 µM	> 100 µM and 50 µM and > 7.6 µM	> 100	< 0.01	0.5 µM	< 0.01	< 0.005 µM	< 0.01 µM	< 0.005 µM	< 0.01	> 100 µM and 50 µM	< 0.01 µM	< 0.01		
C=C1Oc2nc3ccccc3c(=O)n2C1(C)C	> 100 µM	> 100 µM	> 100 µM	> 100	> 10 µM	> 100 µM	> 100 µM	> 100												
CC(=O)OC1C(CCl)OC(N=[N+]=[N-])C(OC(C)=O)C1OC(C)=O (stereo not given)	> 100 µM	> 100 µM	> 100 µM		> 100 µM	> 100 µM	> 100 µM	> 100												
CC[O-].Cc1ccc2cccc([O-])c2n1.Cc1ccc2cccc([O-])c2n1.Cc1ccc2cccc([O-])c2n1.[Ti+4]	38.8 µM	> 100 µM	> 100 µM	> 92.6	> 100 µM	39.8 µM	47.1 µM	> 81			6.97	43.2 µM	40.4 µM	34.1 µM			19.5 µM	12.4	41.1	28.9
O=C(Nc1ccccc1Br)c1cccc([N+](=O)[O-])c1O	> 40.3 µM	> 59.7 µM	35 µM	> 25.1	7.51 µM	> 33.4 µM	> 71.4 µM	> 100												
CC(C)(C)[Si](C)(C)O/N=C\c1ccc(O[Si](C)(C)C(C)(C)C)cc1	> 100 µM	> 100 µM	> 100 µM	> 100	50.9 µM	> 100 µM	> 100 µM	> 100												
N#CC(C#N)=CSc1ccccc1	> 100 µM	35.7 µM	42.3 µM	> 100	> 100 µM	55.3 µM	37.1 µM	63.3												
CCOC(=O)C(=O)N=Nc1nc2c(O)c3ccccc3c(O)c2s1	> 100 µM	14.6 µM	5.13 µM	7.06	4.07 µM	25.2 µM	5.12 µM	10.2		31.6 µM						27.1 µM				
O=C(O)C1CCCCN1C(=O)c1ccccc1 (stereo not given)	> 100 µM	> 100 µM	> 100 µM	> 100	> 100 µM	> 100 µM	> 100 µM	> 100												
Cc1cc(NS(=O)(=O)c2ccc(NC(=O)c3cccc4c(Nc5ccc(S(=O)(=O)Nc6cc(C)on6)cc5)c5ccccc5nc34)cc2)no1	> 100 µM	76.5 µM	62 µM	69.3	> 100 µM	> 100 µM	> 100 µM	> 100												
